Patent publication US12286442B2, “Methods and materials for increasing transcription factor eb polypeptide levels” (University of Pittsburgh—Of the Commonwealth System of …, priority 2019, dated 2025)

Each molecule was assayed on TFEB (assay: High content screen measuring TFEB nuclear accumulation (TFEB nuclear/cytosol ratio) in BEAS-2B cells stably expressing TFEB-EGFP). Conditions: 18 hours incubation.
Type: cell-based, human
Procedure: FIG. 3. High content screen assay (384 well) measuring TFEB nuclear accumulation. Approximately 2500 primary and immortalized human bronchial epithelial cells (BEAS-2B) stably expressing TFEB-EGFP in 25 μL of HITEs media with 10% FBS were dispensed into 384 well plate (Black with glass bottom) and incubated for 8 hours. Compound serial dilution (DMEM low glucose media with 2% FBS, 25 μL volume) were prepared using a robotic liquid hander. Compound solutions were then added to the cell plate and incubated for 18 hours. Cells were then fixed with 4% PFA followed by DAPI staining. TFEB localization was imaged on the GFP channel along with the DAPI signal using a Cytation 5 high content imager. Images were processed through Biotek Gen5 software; specifically, the DAPI signal was used as the primary mask to quantify the nuclear TFEB-GFP signal. The cytosolic TFEB-GFP signal was quantified through expanding the primary mask. The TFEB nuclear/cytosol ratios were calculated from nuclear TFEB-GFP signal/cytosol TFEB-GFP signal, which determined the compound efficacy. […] Compound activities (μM) were determined by the minimal compound concentration needed to increase TFEB nuclear/cytosol ratio by 25%. Activity: “−” equals >25 μM; “+” equals between 25 μM and >10 μM; “++” equals between ≤10 μM and >1 μM; and “+++” equals […]. N=4.
(§1) Approximately 2300 primary and immortalized human bronchial epithelial cells (BEAS-2B) stably expressing TFEB-EGFP in 25 μL of HITEs media with 10% FBS were dispensed into 384 well plate (Black with glass bottom) and incubated for 8 hours. Compound serial dilution (DMEM low glucose media with 2% FBS, 25 μL volume) were prepared using a robotic liquid hander. Compound solution were then added to the cell plate and incubated for 18 hours. Cells were then fixed with 4% PFA followed by DAPI staining. TFEB localization was imaged on the GFP channel along with the DAPI signal using a Cytation 5 high content imager. Images were processed through Biotek Gen5 software. Specifically, the DAPI signal was used as the primary mask to quantify the nuclear TFEB-GFP signal. Cytosolic TFEB-GFP signal was quantified through expanding the primary mask. The TFEB nuclear/cytosol ratios were calculated from nuclear TFEB-GFP signal/cytosol TFEB-GFP signal, which determined the compound efficacies.
Compounds efficacies (μM) were determined by the minimal compound concentration needed to increase TFEB nuclear/cytosol ratio by 25%. Activity: “+” equals >25 μM; “++” equals between ≤25 μM and >1 μM; and “+++” equals ≤1 μM.
A high-content imaging screen was conducted using Beas2B cells that stably express GFP-TFEB.

SMILES	efficacy (minimal compound concentration needed to increase TFEB nuclear/cytosol ratio by 25%)
O=C(Cn1c(=O)n(-c2ccccc2)c(=O)c2ccccc21)N1CCOCC1 [Compound 230]	+ (“+” equals >25 μM)
Fc1cccc2c(Nc3ccc4[nH]ccc4c3)nc(-c3ccncc3)nc12 [Compound 108]	+++ (“+++” equals ≤1 μM)
Fc1cc(Nc2nc(-c3cncs3)nc3ncccc23)cc2cc[nH]c12 [Compound 396]	+++ (“+++” equals ≤1 μM)
Fc1cccc(Nc2nc(-c3ccncc3)nc3ccncc23)c1 [Compound 194]	+++ (“+++” equals ≤1 μM)
c1cc(-c2nc(Nc3ccc4cnsc4c3)c3cnccc3n2)ccn1 [Compound 139]	+ (“+” equals >25 μM)
CC(C)(C)c1cc2cc(Nc3nc(-c4ccncc4)nc4ccccc34)ccc2[nH]1 [Compound 74]	+++ (“+++” equals ≤1 μM)
c1cnc2nc(-c3ccncc3)nc(Nc3ccc4nc(C5CC5)oc4c3)c2c1 [Compound 391]	+++ (“+++” equals ≤1 μM)
Cc1ccc(-c2nc(Nc3cc(F)ccc3C)c3ccccc3n2)cc1 [Compound 195]	+ (“+” equals >25 μM)
Fc1cccc(Nc2nc(-c3ccncc3)cc3ncccc23)c1 [Compound 245]	+++ (“+++” equals ≤1 μM)
Fc1ccc(Nc2nc(-c3ccncc3)nc3ccccc23)cc1F [Compound 183]	++ (“++” equals between ≤25 μM and >1 μM)
CCc1nc2ccc(Nc3nc(-c4ccncc4)nc4ccncc34)cc2s1 [Compound 119]	+ (“+” equals >25 μM)
Cc1c(Nc2nc(-c3ccncc3)nc3ccccc23)ccc2[nH]ccc12 [Compound 61]	+++ (“+++” equals ≤1 μM)
COc1cc(C)cc(Nc2nc(-c3ccncc3)nc3ccccc23)c1 [Compound 20]	++ (“++” equals between ≤25 μM and >1 μM)
Cc1cccc2c(Nc3cc(F)c4[nH]ccc4c3)nc(-c3ccncc3)nc12 [Compound 156]	+++ (“+++” equals ≤1 μM)
c1ccc2c(Nc3ccc4[nH]ncc4c3)nc(-c3ccncc3)cc2c1 [Compound 48]	+ (“+” equals >25 μM)
Cc1cnccc1-c1nc(Nc2ccc3[nH]ncc3c2)c2ccccc2n1 [Compound 45]	+ (“+” equals >25 μM)
COc1cc(-n2c(=O)c3ccccc3n(CC(=O)Nc3ccc(C(C)C)cc3)c2=O)cc(OC)c1OC [Compound 214]	+ (“+” equals >25 μM)
Fc1cccc2c(Nc3ccc4ncsc4c3)nc(-c3ccncc3)nc12 [Compound 372]	+++ (“+++” equals ≤1 μM)
Cc1cccc2c(Nc3ccc4[nH]ccc4c3)nc(-c3ccncc3)nc12 [Compound 117]	+++ (“+++” equals ≤1 μM)
[O-][n+]1ccc(-c2nc(Nc3ccc4[nH]ccc4c3)c3ccccc3n2)cc1 [Compound 66]	+ (“+” equals >25 μM)
c1ccc2c(Nc3ccc4[nH]ncc4c3)nc(N3CCNCC3)nc2c1 [Compound 50]	+ (“+” equals >25 μM)
c1cc(-c2nc(Nc3ccc4[nH]ncc4c3)c3cnccc3n2)ccn1 [Compound 85]	+++ (“+++” equals ≤1 μM)

Each molecule was assayed on BEAS-2B cells (assay: Toxicity: compound concentration needed to induce greater than 50 percent of cell loss). Conditions: 18 hours incubation.
Type: cell-based, human
Procedure: as §1
Toxicity was determined by determining the compound concentration needed to induce greater than 50 percent of cell loss. For toxicity, cell loss of greater than 50 percent at a concentration that equals or is greater than 25 μM was represented as cell loss of greater than 50 percent at a concentration less than 25 μM and greater than 1 μM was represented as and cell loss of greater than 50 percent at a concentration that equals or is less than 1 μM was represented as “+++.” The assay results for compounds 1-202, 214-248, 332, 333, and 352-402 are shown in Table A.

SMILES	toxicity (compound concentration needed to induce greater than 50 percent of cell loss)
O=C(Cn1c(=O)n(-c2ccccc2)c(=O)c2ccccc21)N1CCOCC1 [Compound 230]	+ (cell loss of greater than 50 percent at a concentration that equals or is greater than 25 μM was represented as)
Fc1cccc2c(Nc3ccc4[nH]ccc4c3)nc(-c3ccncc3)nc12 [Compound 108]	+ (cell loss of greater than 50 percent at a concentration that equals or is greater than 25 μM was represented as)
Fc1cc(Nc2nc(-c3cncs3)nc3ncccc23)cc2cc[nH]c12 [Compound 396]	+ (cell loss of greater than 50 percent at a concentration that equals or is greater than 25 μM was represented as)
Fc1cccc(Nc2nc(-c3ccncc3)nc3ccncc23)c1 [Compound 194]	+ (cell loss of greater than 50 percent at a concentration that equals or is greater than 25 μM was represented as)
c1cc(-c2nc(Nc3ccc4cnsc4c3)c3cnccc3n2)ccn1 [Compound 139]	+ (cell loss of greater than 50 percent at a concentration that equals or is greater than 25 μM was represented as)
CC(C)(C)c1cc2cc(Nc3nc(-c4ccncc4)nc4ccccc34)ccc2[nH]1 [Compound 74]	++ (cell loss of greater than 50 percent at a concentration less than 25 μM and greater than 1 μM was represented as)
c1cnc2nc(-c3ccncc3)nc(Nc3ccc4nc(C5CC5)oc4c3)c2c1 [Compound 391]	+ (cell loss of greater than 50 percent at a concentration that equals or is greater than 25 μM was represented as)
Cc1ccc(-c2nc(Nc3cc(F)ccc3C)c3ccccc3n2)cc1 [Compound 195]	+ (cell loss of greater than 50 percent at a concentration that equals or is greater than 25 μM was represented as)
Fc1cccc(Nc2nc(-c3ccncc3)cc3ncccc23)c1 [Compound 245]	+ (cell loss of greater than 50 percent at a concentration that equals or is greater than 25 μM was represented as)
Fc1ccc(Nc2nc(-c3ccncc3)nc3ccccc23)cc1F [Compound 183]	+ (cell loss of greater than 50 percent at a concentration that equals or is greater than 25 μM was represented as)
CCc1nc2ccc(Nc3nc(-c4ccncc4)nc4ccncc34)cc2s1 [Compound 119]	+ (cell loss of greater than 50 percent at a concentration that equals or is greater than 25 μM was represented as)
Cc1c(Nc2nc(-c3ccncc3)nc3ccccc23)ccc2[nH]ccc12 [Compound 61]	++ (cell loss of greater than 50 percent at a concentration less than 25 μM and greater than 1 μM was represented as)
COc1cc(C)cc(Nc2nc(-c3ccncc3)nc3ccccc23)c1 [Compound 20]	+ (cell loss of greater than 50 percent at a concentration that equals or is greater than 25 μM was represented as)
Cc1cccc2c(Nc3cc(F)c4[nH]ccc4c3)nc(-c3ccncc3)nc12 [Compound 156]	+ (cell loss of greater than 50 percent at a concentration that equals or is greater than 25 μM was represented as)
c1ccc2c(Nc3ccc4[nH]ncc4c3)nc(-c3ccncc3)cc2c1 [Compound 48]	+ (cell loss of greater than 50 percent at a concentration that equals or is greater than 25 μM was represented as)
Cc1cnccc1-c1nc(Nc2ccc3[nH]ncc3c2)c2ccccc2n1 [Compound 45]	+ (cell loss of greater than 50 percent at a concentration that equals or is greater than 25 μM was represented as)
COc1cc(-n2c(=O)c3ccccc3n(CC(=O)Nc3ccc(C(C)C)cc3)c2=O)cc(OC)c1OC [Compound 214]	+ (cell loss of greater than 50 percent at a concentration that equals or is greater than 25 μM was represented as)
Fc1cccc2c(Nc3ccc4ncsc4c3)nc(-c3ccncc3)nc12 [Compound 372]	+ (cell loss of greater than 50 percent at a concentration that equals or is greater than 25 μM was represented as)
Cc1cccc2c(Nc3ccc4[nH]ccc4c3)nc(-c3ccncc3)nc12 [Compound 117]	+ (cell loss of greater than 50 percent at a concentration that equals or is greater than 25 μM was represented as)
[O-][n+]1ccc(-c2nc(Nc3ccc4[nH]ccc4c3)c3ccccc3n2)cc1 [Compound 66]	+ (cell loss of greater than 50 percent at a concentration that equals or is greater than 25 μM was represented as)
c1ccc2c(Nc3ccc4[nH]ncc4c3)nc(N3CCNCC3)nc2c1 [Compound 50]	+ (cell loss of greater than 50 percent at a concentration that equals or is greater than 25 μM was represented as)
c1cc(-c2nc(Nc3ccc4[nH]ncc4c3)c3cnccc3n2)ccn1 [Compound 85]	+ (cell loss of greater than 50 percent at a concentration that equals or is greater than 25 μM was represented as)
